Values of other authors, collected in patent US20170364630A1, “IDENTIFICATION OF CELLULAR ANTIMICROBIAL DRUG TABLETS THROUGH INTERACTOME ANALYSIS” (Vanderbilt University, priority 2014, published 2017).
≈ marks a conversion by molar mass, not a printed value.

Assays:
[1] = target: HIV-1 reverse transcriptase (Human immunodeficiency virus type 1 group M subtype B, UniProt P04585); conditions: Tan et al. 1991; read-out: IC50 against the HIV-1 reverse transcriptase
hepatitis C virus (HCV) = conditions: cell-based quantitative high-throughput screening, He et al. 2015; read-out: EC50, anti-HCV activity
HIV-1 [2] = conditions: approximate value, Guendel et al. 2010; read-out: IC50, inhibitor of HIV-1
calcium channel protein = conditions: Fish and Antzelevitch 2004
[3] = tested on: Ebola-related genes (MERTK, FURIN, TYRO3, CTSB, NADK, POLH, TAPT1); conditions: CMap data, FIG. 8
[4] = tested on: poliovirus-infected HeLa cells
HIV-1 [5] = conditions: Szlavik et al. 2004
human enterovirus 71 = conditions: human enterovirus 71-infected mice

C[n+]1cc2c3c(ccc2c2ccc4cc5c(cc4c21)OCO5)OCO3 [sanguinarine nitrate]
IC50 [1]: 150 to 451 µM

Clc1ccc(Cn2c(CN3CCCC3)nc3ccccc32)cc1 [clemizole]
EC50 (hepatitis C virus (HCV)): 7.15 µM

CN1CCCN(C(c2ccccc2)c2ccc(Cl)cc2)CC1 (stereo not drawn) [homochlorcyclizine]
EC50 (hepatitis C virus (HCV)): 0.47 µM

O=C1Cc2c([nH]c3ccc([N+](=O)[O-])cc23)-c2ccccc2N1 [alsterpaullone]
IC50 (HIV-1 [2]): ~0.15 µM

CC[C@H]1[C@@H]2C[C@H]3[C@@H]4N(C)c5ccccc5[C@]45C[C@@H]([C@H]2[C@H]5O)N3[C@@H]1O [ajmaline]
Concentration exerting comparable pharmacological activity by inhibiting calcium channel protein activity (calcium channel protein): ≤ 20 μM | Up-regulated host genes following drug treatment [3]: MERTK, FURIN, TYRO3, FURIN, and CTSB

O[C@H]1[C@H]2c3cc4c(cc3CN3CCC(=C[C@@H]1O)[C@H]23)OCO4 [lycorine]
Effect on viral protein synthesis [4]: inhibits viral protein synthesis | IC50, anti-HIV-1 activity in MT4 cells (HIV-1 [5]): 0.4 µg/mL (≈ 1.39 µM) | Effect on mortality of infected mice (human enterovirus 71): reduces mortality

CN1C(C(=O)Nc2ccccn2)=C(O)c2ccccc2S1(=O)=O [piroxicam]
Up-regulated host genes following drug treatment [3]: FURIN and MERTK

CC1(C)S[C@@H]2[C@H](NC(=O)[C@H](NC(=O)N3CCNC3=O)c3ccccc3)C(=O)N2[C@H]1C(=O)O [azlocillin]
Down-regulated host genes following drug treatment [3]: TAPT1 and TYRO3 | Up-regulated host genes following drug treatment [3]: NADK and POLH
